Experimental data taken from patent US11096903B2, “Use of pinocarveol” (INDUSTRY-ACADEMIC COOPERATION FOUNDATION, YONSEI UNIVERSITY, priority 2015, dated 2021).
Values joined by “and” are separate entries in the source; they are usually repeats but may differ in a detail not shown here. Identical values can stand only once.

Columns and labels:
AMPK = experiment: Western blot of p-AMPK/AMPK in hepatic tissues; format: in vivo, mice; details: PD vs HFD
Protocol: (§1) A predetermined amount of visceral fat or hepatic tissues was homogenized with liquid nitrogen and a lysis buffer solution in a mortar and centrifuged at 13,000×g and 4° C. for 20 minutes, and the middle layer was obtained to quantify proteins according to the Bradford method. 50 μg of the protein was subject to electrophoresis on an SDS polyacrylamide gel, was subject to electroblotting on a PVDF hyper film, and was reacted with the corresponding antibody, β-catenin, phospho-AMPK (AMP-activated protein kinase), AMPK, GAPDH (Cell-Signaling Technology, U.S.), respectively. The signal of each protein was visualized by a chemiluminescent detection system (Amersham, U.K.), and the thickness of bands was quantified by using the Quantity One Analysis Software (Bio-Rad Laboratories, U.S.).

[1] = tested on: IL-6, TNFα, MCP1, and leptin; experiment: Inflammatory cytokine concentration in blood (ELISA); format: in vivo, mice; details: PD vs HFD group, 10 weeks
Protocol: (§2) As a control drug, metformin (Met) or sibutramine (Sibu) which is an anti-obesity drug was added at a concentration of about 0.01% to HFD and used (Table 1). For a normal diet (chow) group, a commercially available rodent chow was fed. Pinocarveol, metformin, and sibutramine were all purchased from Sigma-Aldrich Company (U.S.).
The concentrations of plasma IL-6, TNFα, MCP1, and leptin were measured by the ELISA method using the Milliplex map kit (Millipore Corporation, U.S.).

[2] = tested on: genes related to thermogenesis and adipogenesis; experiment: RT-PCR gene expression in adipose tissues of internal organs; format: in vivo, mice; details: PD vs HFD
Protocol: (§3) 1 mL of TRIzol solution was added per 0.1 g of adipose tissues of internal organs and hepatic tissues, and tissues were crushed and centrifuged at 4° C. and 12,000×g for 10 minutes. The supernatant was placed in a new tube, and 200 μL of chloroform was added followed by stirring. After repeating this procedure twice, the supernatant was placed in a new tube, and isopropanol and the supernatant were added at a ratio of 1:1. After strongly shaking for 10 times, the mixture was placed at room temperature for 10 minutes, centrifuged at 4° C. and 12,000×g for 10 minutes to remove the supernatant, and 1 mL of 70% ethanol was added to the precipitate to be centrifuged at 4° C. and 7,500×g for 5 minutes. After removing ethanol, the tube containing RNA precipitate was dried at room temperature for 5 minutes, and RNA pellet was dissolved using nuclease free water. By a using UV/VIS spectrophotometer (Beckman coulter, DU730, U.S.), the concentrations of RNA samples extracted at wavelengths of 260 nm and 280 nm were measured, and by carrying out agarose gel electrophoresis, the integrity of RNA samples was determined.
(§4) For RNA samples extracted from adipose tissues of internal organs and hepatic tissues, oligo dT primers and superscript reverse transcriptase (GIBCO BRL, U.S.) were used to carry out reverse transcription to synthesize cDNA. By using the cDNA obtained by reverse transcription as a […] and using a 5′ and 3′ flanking sequence of the cDNA of the gene to be amplified as a primer, PCR was carried out, and at this time, the sequences of the used primers are shown in Table 2. 1 μL of the amplified PCR product was subject to electrophoresis on a 1% agarose gel to check for DNA bands.

Dietary Obese Mice [3] = experiment: Oral glucose tolerance test; format: in vivo; details: PD vs HFD group, at 8 weeks, d-glucose 2 g/kg oral
Protocol: An obesity inducing diet used in the present invention included a high fat control diet (HFD: 40% fat calorie, 17 g lard, and 3% corn oil/100 g diet), and a pinocarveol-supplemented high fat diet (PD) supplemented with pinocarveol (80,613, Sigma-Aldrich Company, CAS Number: 547-61-5, (1S,3R,5S)-6,6-dimethyl-2-methylenebicyclo[3,1,1]heptan-3-ol) has the same composition as HFD, but about 0.2% of pinocarveol was added. As a control drug, metformin (Met) or sibutramine (Sibu) which is an anti-obesity drug was added at a concentration of about 0.01% to HFD and used (Table 1). For a normal diet (chow) group, a commercially available rodent chow was fed. Pinocarveol, metformin, and sibutramine were all purchased from Sigma-Aldrich Company (U.S.).
At 8 weeks of experimental raising, experimental animals were fasted for 16 hours and orally administered with d-glucose corresponding to 2 g/kg body weight, and blood was collected from the tail vein of mice at time points of 15 minutes, 30 minutes, 60 minutes, and 120 minutes. The glucose concentration of collected blood was measured by using a script-operation blood glucose sensor (ONETOUCH Ultra, Inverness Medical Ltd., U.K.).

Dietary Obese Mice [4] = experiment: Body weight gain, diet intake and food efficiency ratio in high fat diet-fed mice; format: in vivo; details: 10 weeks
Protocol: as §2
(§5) 5-week-old male C57BL/6J mice (Orient, Korea) were adjusted to a laboratory condition with solid feed for one week and randomly assigned to a high fat diet control group and experimental groups according to the randomized block method, followed by raising for ten weeks. Diet was supplied with water between 10 and 11 a.m. every day, intake amounts of diet was measured every day, and weight was measured every week. In order to prevent sudden weight changes due to feed intake, feed containers were removed, and weight was measured after 2 hours. Experimental animals were fasted for 12 hours or longer and anaesthetized by diethyl ether, and blood, liver, adipose tissues of internal organs (epididymal fat, fat around the kidney, mesenteric fat, and retroperitoneal fat) were collected, washed with 0.1M phosphate buffer solution (pH 7.4), and measured for weight. Blood collected from abdominal aorta was centrifuged at 1,000×g for 15 minutes to separate blood plasma.

[5] = cited from earlier work
Dietary Obese Mice [6] = experiment: Liver function indexes (ALT, AST activity) in blood plasma; format: in vivo; details: PD vs HFD group, 10 weeks
Protocol: as §2, §5

β-catenin = experiment: Western blot of β-catenin in adipose tissues of internal organs; format: in vivo, mice; details: PD vs HFD
Protocol: as §1

[7] = tested on: genes related to lipogenesis; experiment: RT-PCR gene expression in hepatic tissues; format: in vivo, mice; details: PD vs HFD
Protocol: as §3, §4

Dietary Obese Mice [8] = experiment: Fasting blood glucose and insulin concentration; format: in vivo; details: PD vs HFD group, 10 weeks
Protocol: as §2
Meanwhile, the glucose concentration of the blood plasma obtained during fasting which was collected from mice raised for 10 weeks was measured by using a biochemical automatic analyzer (Express Plus, Chiron Diagnostics Co., U.S.), and kit reagents for analysis were purchased from Bio-Clinical System (Korea).
The insulin concentration of blood plasma obtained during fasting was measured by using a mouse insulin ELISA kit (Millipore Corporation, U.S.).

Dietary Obese Mice [9] = experiment: Plasma lipid concentration (commercial measurement kit); format: in vivo; details: 10 weeks
Protocol: as §2, §5
In order to evaluate the concentrations of plasma cholesterol, neutral fat, and free fatty acids of experimental animals raised for ten weeks, a commercially available measurement kit (Bio Clinical System, Korea) was used to perform measurement by repeating 2 measurements, respectively.

Dietary Obese Mice [10] = experiment: Visceral fat weight in high fat diet-fed mice; format: in vivo; details: 10 weeks
Protocol: as §2, §5
After feeding the experimental diets for 10 weeks, each of epididymal fat, fat around the kidney, mesenteric fat, and retroperitoneal fat, which compose visceral fat, was extracted to measure the weight thereof.

Dietary Obese Mice [11] = experiment: Liver weight and lipid concentration of hepatic tissue (Folch extraction); format: in vivo; details: PD vs HFD group, 10 weeks
Protocol: as §2, §5
Lipid components of hepatic tissues were collected as follows according to the method by Folch, et al. (Folch J, Lees M, Sloane Stanley G H. A simple method for the isolation and purification of total lipids from animal tissues. J Bio Chem. 1957; 226: 497-509). 1 mL of distilled water was applied to a hepatic tissue (0.25 g) and homogenized by using a Polytron homogenizer (IKA-WERKE GmbH & Co., Ultra-Turrax, Staufen, Germany). 5 mL of a chloroform:methanol solution (2:1, v/v) was added to the homogeneous solution, mixed well and centrifuged at 1,000×g for 10 minutes to separate a lower phase. 2 mL of a chloroform:methanol solution (2:1, v/v) was added to an upper phase again, and after repeating the same procedure, lipid components of the liver were completely separated. 3 mL of a chloroform:methanol:0.05% CaCl2) (3:48:47, v/v/v) solution was added to the lower phase thus obtained, mixed for 1 minute, and centrifuged at 1,000×g for 10 minutes. After obtaining the final lower phase and completely drying with nitrogen gas, the dried lipids were dissolved in 1 mL of methanol to use for lipid component analysis.
The concentrations of neutral fat, cholesterol, and free fatty acids of the lipid extracts of hepatic tissues were measured by using the same commercially available measurement kit (Bio Clinical System, Korea) as previously used for the analysis of plasma lipid concentration.

C=C1[C@H](O)C[C@@H]2C[C@H]1C2(C)C [pinocarveol, (1S,3R,5S)-6,6-dimethyl-2-methylenebicyclo[3,1,1]heptan-3-ol]
activation (p-AMPK/AMPK ratio) of AMPK (AMPK): significant increase
activation (p-AMPK/AMPK ratio) of AMPK (AMPK; listed as PD): significantly increased
decrease in plasma IL-6 concentration [1]: 70%
decrease in plasma MCP1 concentration [1]: 35%
decrease in plasma TNFα concentration [1]: 28%
decrease in plasma leptin concentration [1]: 40%
C/EBPα gene expression [2]: significantly decreased
CD36 gene expression [2]: significantly decreased
FAS gene expression [2]: significantly decreased
PGC-1α gene expression [2]: significantly increased
PPARγ2 gene expression [2]: significantly decreased
UCP1 gene expression [2]: significantly increased
UCP3 gene expression [2]: significantly increased
leptin gene expression [2]: significantly decreased
C/EBPα gene expression ([2]; listed as PD): significantly decreased again
CD36 gene expression ([2]; listed as PD): significantly decreased again
FAS gene expression ([2]; listed as PD): significantly decreased again
PGC-1α gene expression ([2]; listed as PD): significantly increased again
PPARγ2 gene expression ([2]; listed as PD): significantly decreased again
UCP1 gene expression ([2]; listed as PD): significantly increased again
UCP3 gene expression ([2]; listed as PD): significantly increased again
leptin gene expression ([2]; listed as PD): significantly decreased again
blood glucose concentrations over time after sugar intake (OGTT) (Dietary Obese Mice [3]): decrease
reduction of area under the curve (AUC) of the glucose concentration (OGTT) (Dietary Obese Mice [3]): 20%
decrease in cumulative body weight gain (Dietary Obese Mice [4]; PD (about 0.2% pinocarveol in HFD) vs HFD group): 32%
decrease in food efficiency ratio (cumulative body weight gain / total diet intake) (Dietary Obese Mice [4]; PD vs HFD group): 32%
solubility in oil and ethanol ([5]; oil and ethanol): dissolve in oil and ethanol
solubility in water ([5]; water): does not dissolve
decrease in alanine aminotransferase (ALT) activity in blood plasma (Dietary Obese Mice [6]): 44% and 52%
decrease in aspartate aminotransferase (AST) activity in blood plasma (Dietary Obese Mice [6]): 32% and 34%
protein expression amount of β-catenin (β-catenin): significant increase
protein expression amount of β-catenin (β-catenin; listed as PD): significantly increased
ACC gene expression [7]: significantly decreased
FAS gene expression [7]: significantly decreased
LPL gene expression [7]: significantly decreased
LXRα gene expression [7]: significantly decreased
SREBP gene expression [7]: significantly decreased
ACC gene expression ([7]; listed as PD): significantly decreased again
FAS gene expression ([7]; listed as PD): significantly decreased again
LPL gene expression ([7]; listed as PD): significantly decreased again
LXRα gene expression ([7]; listed as PD): significantly decreased again
SREBP gene expression ([7]; listed as PD): significantly decreased again
decrease in fasting blood glucose concentration (Dietary Obese Mice [8]): 21%
decrease in fasting blood insulin concentration (Dietary Obese Mice [8]): 50%
decrease in plasma free fatty acid concentration (Dietary Obese Mice [9]; PD vs HFD group): 39%
decrease in plasma neutral fat concentration (Dietary Obese Mice [9]; PD vs HFD group): 27%
decrease in plasma total cholesterol concentration (Dietary Obese Mice [9]; PD vs HFD group): 16%
HDL-cholesterol concentration in blood (Dietary Obese Mice [9]; between the experimental groups): did not show any significant difference
decrease in total visceral fat weight (Dietary Obese Mice [10]; PD vs HFD group): 32%
weights of epididymal fat, fat around the kidney, mesenteric fat, and retroperitoneal fat (Dietary Obese Mice [10]; PD vs HFD group): significantly reduced
effect of reducing body weight and visceral fat amount compared with control drugs (Dietary Obese Mice [10]; vs sibutramine and metformin diets): as much excellent effect of reducing body weight and visceral fat amount as commercially available anti-obesity drugs (sibutramine) and diabetes treatment drugs (metformin)
decrease in absolute liver weight (Dietary Obese Mice [11]): 30%
decrease in free fatty acid concentration of hepatic tissue (Dietary Obese Mice [11]): 65%
decrease in neutral fat concentration of hepatic tissue (Dietary Obese Mice [11]): 33%
decrease in total cholesterol concentration of hepatic tissue (Dietary Obese Mice [11]): 31%
